Entries after “also recorded” stand apart in the source; their conditions may differ. Where two headings read alike, the source gives them in different places.
Key:
[1] = target: T1, human melanocortin-4 receptor (hMC4-R) (Homo sapiens, UniProt P32245); experiment: Membrane binding assay: competition with fluorescence labeled NDP-alpha-MSH, fluorescence polarization
T1 construct: expressed in transfected cells; host or cells: HEK293 cells
Method: A membrane binding assay is used to identify competitive inhibitors of fluorescence labeled NDP-alpha-MSH binding to HEK293 cell membrane preparations expressing human melanocortin receptors.
The test compound or unlabeled NDP-alpha-MSH is dispensed at varying concentrations to a 384 well microtiter plate. Fluorescence labeled NDP-alpha-MSH is dispensed at a single concentration, followed by addition of membrane preparations. The plate is incubated for 5 h at room temperature.
The degree of fluorescence polarization is determined with a fluorescence polarization microplate reader.

[2] = Spontaneous feeding paradigm: food intake in rats; type: in vivo, male Wistar rats; details: for increase in cumulative food intake: compared to vehicle; for activity in the spontaneous feeding paradigm: significant increase in food intake at dose of 3 to 30 mg/kg p.o.
Method: Food intake in rats is measured after i.p. or p.o. administration of the test compound (see e.g. Chen, A. S. et al. Transgenic Res 2000 April 9(2):145-54).
Selected Examples of the present invention were active in the rat model at 3, 10 or 30 mg/kg after i.p. and p.o. administration of the test compound, respectively, using male Wistar rats (n=4).

[3] = target: T1, human melanocortin-4 receptor (hMC4-R); experiment: Functional cellular cAMP assay in HEK293 cells, fluorescence polarization; type: cell-based
Method: A functional cellular assay, based on competition between unlabeled CAMP and a fixed quantity of fluorescence labeled CAMP for a limited number of binding sites on a CAMP specific antibody, is used to discriminate melanocortin receptor agonists from antagonists by fluorescence polarization.
HEK293 cells expressing one of the human melanocortin receptors are transferred to 384 well microtiter plates, an appropriate amount of CAMP antibody is added, followed by the addition of different concentrations of the test compound to effect cAMP production. Cells are lysed and a fluorescence labeled cAMP conjugate is dispensed. The plate is read on a fluorescence polarization microplate reader and the amount of cAMP produced as a response to a test compound is compared to the production of CAMP resulting from stimulation with NDP-alpha-MSH. […]

melanocortin-4 receptor [4] = target: T2, melanocortin-4 receptor (Homo sapiens, UniProt P32245); details: cited from earlier work; for EC50: read-out: melanocortin-4 receptor activation EC50
melanocortin-4 receptor [5] = target: T2, melanocortin-4 receptor; details: J. Med. Chem. 2004, 47, 744-755; read-out: melanocortin-4 receptor binding Ki; cited from earlier work
[6] = Bioorg. Med. Chem. Lett. 2003, 13, 3793-3796

T1 sequence (P32245 whole entry): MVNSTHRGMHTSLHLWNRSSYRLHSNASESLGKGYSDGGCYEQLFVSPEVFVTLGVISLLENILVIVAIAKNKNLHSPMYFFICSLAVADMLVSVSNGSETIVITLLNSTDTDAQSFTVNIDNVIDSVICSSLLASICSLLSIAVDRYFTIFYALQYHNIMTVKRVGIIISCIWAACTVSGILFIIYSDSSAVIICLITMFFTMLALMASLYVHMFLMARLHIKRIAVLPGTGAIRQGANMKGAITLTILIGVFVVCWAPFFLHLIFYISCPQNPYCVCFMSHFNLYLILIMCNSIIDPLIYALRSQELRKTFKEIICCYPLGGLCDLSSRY
T2 sequence (P32245 whole entry): as above

IC50 [1] [nM]	SMILES	% activation functional assay ([3]; relative to NDP-alpha-MSH)	other results
200	O=C(N[C@@H](Cc1ccc(Cl)cc1)C(=O)N1CCC(c2ccccc2CN2CCCC2=O)CC1)c1cc(=O)c2ccccc2o1 [Example 1]	does not activate; also recorded: no activation	increase in cumulative food intake ([2]; 30 mg/kg p.o., 4 hours following administration): 159%; increase in cumulative food intake ([2]; 30 mg/kg p.o., 6 hours following administration): 131%; increase in cumulative food intake ([2]; 30 mg/kg p.o., 7 hours following administration): 148%; activity in the spontaneous feeding paradigm [2]: active
	COc1ccc2oc(C(=O)N[C@@H](Cc3ccc(Cl)cc3)C(=O)N3CCC(c4ccccc4CN4CCCC4=O)CC3)cc(=O)c2c1 [Example 17]		increase in cumulative food intake ([2]; 10 mg/kg p.o., 2 hours following administration): 3100%; increase in cumulative food intake ([2]; 10 mg/kg p.o., 4 hours following administration): 540%; activity in the spontaneous feeding paradigm [2]: active
120	O=C(N[C@H](Cc1ccc2ccccc2c1)C(=O)N1CCC(c2ccccc2CN2CCCC2=O)CC1)c1cc(=O)c2ccccc2o1 [Example 91]	does not activate; also recorded: no activation	
200	O=C(N[C@@H](Cc1ccc(Cl)cc1)C(=O)N1CCC(c2ccccc2CN2CCCCC2=O)CC1)c1cc(=O)c2ccccc2o1 [Example 92]	does not activate; also recorded: no activation	
51	O=C(N[C@H](Cc1ccc(Cl)cc1)C(=O)N1CCC(c2ccccc2CN2CCCCC2=O)CC1)c1cc(=O)c2ccccc2o1 [Example 93]	does not activate; also recorded: no activation	
200	O=C(N[C@H](Cc1ccc(Cl)cc1)C(=O)N1CCC(c2ccccc2CN2CCC2=O)CC1)c1cc(=O)c2ccccc2o1 [Example 178]	does not activate; also recorded: no activation	
500	O=C(N[C@@H](Cc1ccc(Cl)cc1)C(=O)N1CCC(c2ccccc2CN2CCCCCC2=O)CC1)c1cc(=O)c2ccccc2o1 [Example 179]	does not activate; also recorded: no activation	
47	O=C(N[C@H](Cc1ccc(Cl)cc1)C(=O)N1CCC(c2ccccc2CN2CCCCCC2=O)CC1)c1cc(=O)c2ccccc2o1 [Example 180]	does not activate; also recorded: no activation	
770	O=C(N[C@@H](Cc1ccc(Cl)cc1)C(=O)N1CCN(c2ccccc2CN2CCCC2=O)CC1)c1cc(=O)c2ccccc2o1 [Example 181]	does not activate; also recorded: no activation	
61	O=C(N[C@H](Cc1ccc(Cl)cc1)C(=O)N1CCN(c2ccccc2CN2CCCC2=O)CC1)c1cc(=O)c2ccccc2o1 [Example 182]		increase in cumulative food intake ([2]; 3 mg/kg p.o., 2 hours following administration): 273%; increase in cumulative food intake ([2]; 3 mg/kg p.o., 4 hours following administration): 204%; increase in cumulative food intake ([2]; 3 mg/kg p.o., 6 hours following administration): 156%; increase in cumulative food intake ([2]; 3 mg/kg p.o., 7 hours following administration): 197%; activity in the spontaneous feeding paradigm [2]: active; % activation functional assay ([3]; at 10 μM): 15%@10 μM; % activation functional assay ([3]; at 10 μM, listed as example 182): little or no activation
100	O=C(N[C@H](Cc1ccc2ccccc2c1)C(=O)N1CCN(c2ccccc2CN2CCCC2=O)CC1)c1cc(=O)c2ccccc2o1 [Example 267]	does not activate; also recorded: no activation	
500	CS(=O)(=O)Nc1ccccc1N1CCN(C(=O)[C@@H](Cc2ccc(Cl)cc2)NC(=O)[C@H]2Cc3ccccc3CN2)CC1 [WO03009850 (example 1)]	96%	stimulation of melanocortin-4 receptor (melanocortin-4 receptor [4]; [6]): 100%; EC50 (melanocortin-4 receptor [4]; [6]): 380 nM; EC50 (melanocortin-4 receptor [4]; J. Med. Chem. 2004, 47, 744-755): 16 nM; EC50 [3]: 3700 nM; Ki (melanocortin-4 receptor [5]): 220 nM
36	O=C(N[C@H](Cc1ccc(Cl)cc1)C(=O)N1CCC(c2ccccc2CN2CCCC2=O)CC1)c1cc(=O)c2ccccc2o1 [example 2]	43%	EC50 [3]: 5700 nM

— patent publication US20060276485A1, “Substituted piperidine and piperazine derivatives as melanocortin-4 receptor modulators” (priority 2003, published 2006)
